From patent publication US20170050957A1, “4-AMINO-6-(HETEROCYCLIC)PICOLINATES AND 6-AMINO-2-(HETEROCYCLIC)PYRIMIDINE-4-CARBOXYLATES AND THEIR USE AS HERBICIDES” (Dow AgroSciences LLC, priority 2013, published 2017)
Like-named read-outs stand apart in the source and are kept apart here.

What was measured:
[1] = test system: Key Grass and Sedge Weeds as well as Grass Crops; assay: Post-emergent Test II herbicidal activity (Table 16); format: in vivo; conditions: post-emergence, 336 h, 14 d; for pest or weed control at 35 g/ha: 35 g ai/ha; for pest or weed control at 70 g/ha: 70 g ai/ha; for pest or weed control at 140 g/ha: 140 g ai/ha
In short: (§1)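 Herbicidal effect scored as percent visual injury, 14 d after post-emergent application. Spray solutions contained acetone, DMSO, isopropyl alcohol, crop oil concentrate and surfactant, applied at 187 L/ha to young plants (1-2 true leaves).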

[2] = test system: Key Broadleaf Weed and Crop Species; assay: Post-emergent Test II herbicidal activity (Table 15); format: in vivo; conditions: post-emergence, 336 h, 14 d; for pest or weed control at 35 g/ha: 35 g ai/ha; for pest or weed control at 70 g/ha: 70 g ai/ha; for pest or weed control at 140 g/ha: 140 g ai/ha
In short: as §1

[3] = Cyperus esculentus, yellow nutsedge (Cyperus esculentus), read-out: Visual Growth Reduction (%) 14 Days After Application, CYPES
[4] = Echinochloa crus-galli, barnyardgrass (Echinochloa crus-galli), read-out: Visual Growth Reduction (%) 14 Days After Application, ECHCG
[5] = Oryza sativa, rice (Oryza sativa), read-out: Visual Growth Reduction (%) 14 Days After Application, ORYSA
[6] = Setaria faberi, giant foxtail (Setaria faberi), read-out: Visual Growth Reduction (%) 14 Days After Application, SETFA
[7] = Triticum aestivum, wheat, spring (Triticum aestivum), read-out: Visual Growth Reduction (%) 14 Days After Application, TRZAS
[8] = Zea mays, maize, corn (Zea mays), read-out: Visual Growth Reduction (%) 14 Days After Application, ZEAMX
[9] = Abutilon theophrasti, velvetleaf (Abutilon theophrasti), read-out: Visual Growth Reduction (%) 14 Days After Application, ABUTH
[10] = Amaranthus retroflexus, redroot pigweed (Amaranthus retroflexus), read-out: Visual Growth Reduction (%) 14 Days After Application, AMARE
[11] = Brassica napus, oilseed rape, canola (Brassica napus), read-out: Visual Growth Reduction (%) 14 Days After Application, BRSNN
[12] = Chenopodium album, lambsquarters (Chenopodium album), read-out: Visual Growth Reduction (%) 14 Days After Application, CHEAL
[13] = Euphorbia heterophylla, wild poinsettia (Euphorbia heterophylla), read-out: Visual Growth Reduction (%) 14 Days After Application, EPHHL
[14] = Helianthus annuus, sunflower (Helianthus annuus), read-out: Visual Growth Reduction (%) 14 Days After Application, HELAN

Structure (SMILES)	pest or weed control at 35 g/ha [1, 3] [%]	pest or weed control at 70 g/ha [1, 3] [%]	pest or weed control at 140 g/ha [1, 3] [%]	pest or weed control at 35 g/ha [1, 4] [%]	pest or weed control at 70 g/ha [1, 4] [%]	pest or weed control at 140 g/ha [1, 4] [%]	pest or weed control at 35 g/ha [1, 5] [%]	pest or weed control at 70 g/ha [1, 5] [%]	pest or weed control at 140 g/ha [1, 5] [%]	pest or weed control at 35 g/ha [1, 6] [%]	pest or weed control at 70 g/ha [1, 6] [%]	pest or weed control at 140 g/ha [1, 6] [%]	pest or weed control at 35 g/ha [1, 7] [%]	pest or weed control at 70 g/ha [1, 7] [%]	pest or weed control at 140 g/ha [1, 7] [%]	pest or weed control at 35 g/ha [1, 8] [%]	pest or weed control at 70 g/ha [1, 8] [%]	pest or weed control at 140 g/ha [1, 8] [%]	pest or weed control at 35 g/ha [2, 9] [%]	pest or weed control at 70 g/ha [2, 9] [%]	further results
COC(=O)c1nc(-c2cc3ccoc3cc2F)nc(N)c1OC [Compound 2.05]	0 to 29	0 to 29	0 to 29	0 to 29	0 to 29	0 to 29	0 to 29	0 to 29	0 to 29	0 to 29	0 to 29	0 to 29	0 to 29	0 to 29	0 to 29	0 to 29	0 to 29	0 to 29	0 to 29	0 to 29	pest or weed control at 140 g/ha [2, 9]: 0 to 29%; pest or weed control at 35 g/ha [2, 10]: 85 to 94%; pest or weed control at 70 g/ha [2, 10]: 75 to 84%; pest or weed control at 140 g/ha [2, 10]: 95 to 100%; pest or weed control at 35 g/ha [2, 11]: 0 to 29%; pest or weed control at 70 g/ha [2, 11]: 0 to 29%; pest or weed control at 140 g/ha [2, 11]: 0 to 29%; pest or weed control at 35 g/ha [2, 12]: 0 to 29%; pest or weed control at 70 g/ha [2, 12]: 0 to 29%; pest or weed control at 140 g/ha [2, 12]: 45 to 59%; pest or weed control at 35 g/ha [2, 13]: 30 to 44%; pest or weed control at 70 g/ha [2, 13]: 30 to 44%; pest or weed control at 140 g/ha [2, 13]: 45 to 59%; pest or weed control at 35 g/ha [2, 14]: 0 to 29%; pest or weed control at 70 g/ha [2, 14]: 0 to 29%; pest or weed control at 140 g/ha [2, 14]: 30 to 44%; melting point: 160 °C
COC(=O)c1nc(-c2ccc3ccoc3c2F)c(F)c(N)c1Cl [Compound 2.09]	0 to 29	0 to 29	0 to 29	60 to 74	85 to 94	85 to 94	0 to 29	30 to 44	30 to 44	45 to 59	60 to 74	60 to 74	0 to 29	0 to 29	0 to 29	45 to 59	60 to 74	60 to 74	85 to 94	85 to 94	pest or weed control at 140 g/ha [2, 9]: 85 to 94%; pest or weed control at 35 g/ha [2, 10]: 85 to 94%; pest or weed control at 70 g/ha [2, 10]: 95 to 100%; pest or weed control at 140 g/ha [2, 10]: 95 to 100%; pest or weed control at 35 g/ha [2, 11]: 60 to 74%; pest or weed control at 70 g/ha [2, 11]: 75 to 84%; pest or weed control at 140 g/ha [2, 11]: 85 to 94%; pest or weed control at 35 g/ha [2, 12]: 95 to 100%; pest or weed control at 70 g/ha [2, 12]: 95 to 100%; pest or weed control at 140 g/ha [2, 12]: 95 to 100%; pest or weed control at 35 g/ha [2, 13]: 95 to 100%; pest or weed control at 70 g/ha [2, 13]: 95 to 100%; pest or weed control at 140 g/ha [2, 13]: 95 to 100%; pest or weed control at 35 g/ha [2, 14]: 60 to 74%; pest or weed control at 70 g/ha [2, 14]: 75 to 84%; pest or weed control at 140 g/ha [2, 14]: 85 to 94%; melting point: 151 °C
COC(=O)c1nc(-c2cc3occc3cc2F)c(F)c(N)c1Cl [Compound 2.10]	0 to 29	0 to 29	30 to 44	60 to 74	60 to 74	85 to 94	0 to 29	30 to 44	30 to 44	60 to 74	60 to 74	75 to 84	0 to 29	30 to 44	60 to 74	0 to 29	30 to 44	45 to 59	60 to 74	60 to 74	pest or weed control at 140 g/ha [2, 9]: 85 to 94%; pest or weed control at 35 g/ha [2, 10]: 85 to 94%; pest or weed control at 70 g/ha [2, 10]: 95 to 100%; pest or weed control at 140 g/ha [2, 10]: 95 to 100%; pest or weed control at 35 g/ha [2, 11]: 30 to 44%; pest or weed control at 70 g/ha [2, 11]: 60 to 74%; pest or weed control at 140 g/ha [2, 11]: 75 to 84%; pest or weed control at 35 g/ha [2, 12]: 85 to 94%; pest or weed control at 70 g/ha [2, 12]: 95 to 100%; pest or weed control at 140 g/ha [2, 12]: 85 to 94%; pest or weed control at 35 g/ha [2, 13]: 95 to 100%; pest or weed control at 70 g/ha [2, 13]: 95 to 100%; pest or weed control at 140 g/ha [2, 13]: 95 to 100%; pest or weed control at 35 g/ha [2, 14]: 75 to 84%; pest or weed control at 70 g/ha [2, 14]: 85 to 94%; pest or weed control at 140 g/ha [2, 14]: 95 to 100%; melting point: 109 °C
